{
  "source": "patent US4925675A",
  "about": "(hiMedics, Inc., priority 1988, dated 1990)",
  "origin": "cited, not measured here",
  "key": {"[1]": {"details": "in vivo"}},
  "note": "Where two headings read alike, the source gives them in different places.",
  "data": [
    {"smiles": "CC[C@H]1OC(=O)[C@H](C)[C@@H](O[C@H]2C[C@@](C)(OC)[C@@H](O)[C@H](C)O2)[C@H](C)[C@@H](O[C@@H]2O[C@H](C)C[C@H](N(C)C)[C@H]2O)[C@](C)(O)C[C@@H](C)C(=O)[C@H](C)[C@@H](O)[C@]1(C)O", "note": "[Erythromycin]", "values": [
      {"measurement": "absorption in small intestine versus stomach", "setting": "[1]", "result": "better absorption characteristics in the small intestine than in the stomach"},
      {"measurement": "pKa", "result": 8.7},
      {"measurement": "solubility in simulated intestinal fluid", "setting": "SIF", "result": "very soluble"},
      {"measurement": "solubility in alcohol, chloroform, ether and acetone", "setting": "alcohol, chloroform, ether and acetone", "result": "freely soluble"},
      {"measurement": "solubility in amyl acetate and ethylene dichloride", "setting": "amyl acetate and ethylene dichloride", "result": "moderately soluble"},
      {"measurement": "solubility in water", "result": "very slightly soluble"},
      {"measurement": "solubility in water", "setting": "listed as erythromycin", "result": "not highly soluble"}
    ]}
  ]
}
